How the values were obtained:
Conditions in all cases: Compound concentration 1.0 uM
[1] = molecular target: MAP kinase-activated protein kinase 3 (Homo sapiens) (UniProt Q16644); experiment: MAPKAP-K3(h) Eurofins kinase panel
[2] = molecular target: Death-associated protein kinase 2 (Homo sapiens) (UniProt Q9UIK4); experiment: DAPK2(h) Eurofins kinase panel
[3] = molecular target: T1, Mitogen-activated protein kinase kinase kinase 7 (Homo sapiens) (UniProt O43318); experiment: TAK1(h) Eurofins kinase panel
T1 sequence (whole entry): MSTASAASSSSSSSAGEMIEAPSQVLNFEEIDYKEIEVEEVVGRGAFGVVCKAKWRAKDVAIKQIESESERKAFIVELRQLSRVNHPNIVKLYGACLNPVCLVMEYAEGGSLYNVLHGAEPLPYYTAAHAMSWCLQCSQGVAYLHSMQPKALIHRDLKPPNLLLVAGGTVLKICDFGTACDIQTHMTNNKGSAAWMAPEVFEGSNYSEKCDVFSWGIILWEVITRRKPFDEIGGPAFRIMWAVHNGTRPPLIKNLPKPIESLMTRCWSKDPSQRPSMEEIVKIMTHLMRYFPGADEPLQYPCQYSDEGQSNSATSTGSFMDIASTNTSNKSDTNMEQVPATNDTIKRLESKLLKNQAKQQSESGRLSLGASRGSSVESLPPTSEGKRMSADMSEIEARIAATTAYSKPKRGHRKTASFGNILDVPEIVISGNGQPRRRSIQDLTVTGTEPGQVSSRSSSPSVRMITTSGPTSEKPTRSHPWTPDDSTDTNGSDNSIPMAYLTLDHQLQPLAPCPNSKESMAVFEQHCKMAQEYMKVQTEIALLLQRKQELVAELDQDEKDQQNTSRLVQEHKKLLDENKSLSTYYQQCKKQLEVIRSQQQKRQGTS

[4] = molecular target: Eukaryotic elongation factor 2 kinase (Homo sapiens) (UniProt O00418); experiment: eEF-2K(h) Eurofins kinase panel
[5] = molecular target: T2, Serine/threonine-protein kinase NLK (Homo sapiens) (UniProt Q9UBE8); experiment: NLK(h) Eurofins kinase panel
T2 sequence (whole entry): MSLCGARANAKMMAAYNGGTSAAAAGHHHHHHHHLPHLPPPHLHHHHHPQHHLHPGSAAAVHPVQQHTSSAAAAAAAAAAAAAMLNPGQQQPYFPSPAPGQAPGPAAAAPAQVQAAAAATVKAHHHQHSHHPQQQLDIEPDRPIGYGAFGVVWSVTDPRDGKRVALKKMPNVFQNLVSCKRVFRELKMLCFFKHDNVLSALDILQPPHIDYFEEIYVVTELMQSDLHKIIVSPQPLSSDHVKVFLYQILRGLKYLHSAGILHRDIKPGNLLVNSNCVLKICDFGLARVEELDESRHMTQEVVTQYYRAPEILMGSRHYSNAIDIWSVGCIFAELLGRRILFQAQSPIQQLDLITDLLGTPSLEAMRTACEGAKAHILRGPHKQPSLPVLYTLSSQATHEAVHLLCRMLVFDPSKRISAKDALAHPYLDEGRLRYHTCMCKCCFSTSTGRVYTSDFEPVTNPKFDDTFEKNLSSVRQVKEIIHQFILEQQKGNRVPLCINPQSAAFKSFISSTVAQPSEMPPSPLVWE

[6] = molecular target: T3, Homeodomain-interacting protein kinase 4 (Homo sapiens) (UniProt Q8NE63); experiment: HIPK4(h) Eurofins kinase panel
T3 sequence (whole entry): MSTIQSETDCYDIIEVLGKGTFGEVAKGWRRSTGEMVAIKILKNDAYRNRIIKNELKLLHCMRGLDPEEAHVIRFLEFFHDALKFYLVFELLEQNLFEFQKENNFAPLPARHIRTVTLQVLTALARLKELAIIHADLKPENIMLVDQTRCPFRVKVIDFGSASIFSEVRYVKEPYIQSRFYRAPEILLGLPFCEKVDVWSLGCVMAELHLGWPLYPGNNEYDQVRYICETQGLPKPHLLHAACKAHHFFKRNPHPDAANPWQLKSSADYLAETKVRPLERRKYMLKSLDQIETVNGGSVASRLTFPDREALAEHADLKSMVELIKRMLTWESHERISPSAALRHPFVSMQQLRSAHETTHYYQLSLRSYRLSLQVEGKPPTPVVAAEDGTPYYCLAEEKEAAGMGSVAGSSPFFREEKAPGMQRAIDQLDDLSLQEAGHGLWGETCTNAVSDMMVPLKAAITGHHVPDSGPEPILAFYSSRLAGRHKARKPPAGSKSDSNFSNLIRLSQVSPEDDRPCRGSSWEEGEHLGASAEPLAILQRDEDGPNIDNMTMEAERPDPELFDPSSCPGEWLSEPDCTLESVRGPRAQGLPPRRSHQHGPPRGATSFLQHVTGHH

[7] = molecular target: Receptor tyrosine-protein kinase erbB-2 (Homo sapiens) (UniProt P04626); experiment: ErbB2(h) Eurofins kinase panel
[8] = molecular target: Serine/threonine-protein kinase PAK 3 (Homo sapiens) (UniProt O75914); experiment: PAK3(h) Eurofins kinase panel
[9] = molecular target: T4, TGF-beta receptor type-1 (Homo sapiens) (UniProt P36897); experiment: TGFBR1(h) Eurofins kinase panel
T4 sequence (whole entry): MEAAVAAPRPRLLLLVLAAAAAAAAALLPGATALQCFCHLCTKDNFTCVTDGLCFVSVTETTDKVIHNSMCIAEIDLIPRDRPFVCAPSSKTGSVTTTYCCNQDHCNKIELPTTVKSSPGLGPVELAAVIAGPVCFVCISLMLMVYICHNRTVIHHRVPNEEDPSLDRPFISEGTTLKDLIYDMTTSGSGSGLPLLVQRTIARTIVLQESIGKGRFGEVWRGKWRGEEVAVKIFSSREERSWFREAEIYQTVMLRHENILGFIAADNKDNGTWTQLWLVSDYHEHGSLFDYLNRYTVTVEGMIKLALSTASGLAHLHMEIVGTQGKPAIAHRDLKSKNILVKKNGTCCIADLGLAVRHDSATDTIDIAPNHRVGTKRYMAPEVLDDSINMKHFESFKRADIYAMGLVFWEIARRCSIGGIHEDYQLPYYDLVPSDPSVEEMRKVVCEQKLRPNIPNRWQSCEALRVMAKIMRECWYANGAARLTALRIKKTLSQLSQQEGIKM

Measured: % residual kinase activity

Receptor tyrosine-protein kinase erbB-2 (Homo sapiens), sequence (P04626 whole entry): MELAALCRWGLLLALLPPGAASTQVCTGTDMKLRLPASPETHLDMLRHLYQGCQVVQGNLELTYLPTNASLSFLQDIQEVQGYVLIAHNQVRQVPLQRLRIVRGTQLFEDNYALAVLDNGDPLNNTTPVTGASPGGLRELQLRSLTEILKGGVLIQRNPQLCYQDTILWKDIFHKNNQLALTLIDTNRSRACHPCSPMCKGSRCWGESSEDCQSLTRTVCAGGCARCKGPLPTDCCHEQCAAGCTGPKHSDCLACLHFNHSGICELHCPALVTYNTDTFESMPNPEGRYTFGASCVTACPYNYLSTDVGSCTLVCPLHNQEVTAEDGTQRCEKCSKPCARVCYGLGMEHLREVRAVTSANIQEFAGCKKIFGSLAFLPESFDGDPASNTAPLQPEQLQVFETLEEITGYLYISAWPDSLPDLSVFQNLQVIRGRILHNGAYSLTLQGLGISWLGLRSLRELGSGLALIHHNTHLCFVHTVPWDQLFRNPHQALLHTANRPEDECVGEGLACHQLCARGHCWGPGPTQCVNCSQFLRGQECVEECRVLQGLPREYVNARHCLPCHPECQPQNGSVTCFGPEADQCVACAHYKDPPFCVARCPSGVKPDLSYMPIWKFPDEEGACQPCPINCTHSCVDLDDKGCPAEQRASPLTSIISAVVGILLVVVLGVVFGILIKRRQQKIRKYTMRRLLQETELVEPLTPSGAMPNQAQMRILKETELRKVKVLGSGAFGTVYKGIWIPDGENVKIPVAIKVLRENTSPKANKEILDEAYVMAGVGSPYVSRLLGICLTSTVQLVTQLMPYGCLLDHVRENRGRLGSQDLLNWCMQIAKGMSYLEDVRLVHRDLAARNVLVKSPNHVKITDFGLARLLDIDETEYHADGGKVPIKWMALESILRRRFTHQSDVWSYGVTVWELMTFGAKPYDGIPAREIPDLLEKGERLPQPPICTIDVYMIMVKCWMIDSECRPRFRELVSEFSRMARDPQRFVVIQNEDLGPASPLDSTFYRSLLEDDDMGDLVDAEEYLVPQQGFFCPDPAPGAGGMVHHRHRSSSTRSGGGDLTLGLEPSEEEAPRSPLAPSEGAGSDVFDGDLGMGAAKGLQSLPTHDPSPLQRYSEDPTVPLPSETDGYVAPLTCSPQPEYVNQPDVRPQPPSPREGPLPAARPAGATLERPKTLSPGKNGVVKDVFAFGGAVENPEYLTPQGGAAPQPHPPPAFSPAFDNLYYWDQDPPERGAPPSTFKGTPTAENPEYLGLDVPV
Serine/threonine-protein kinase PAK 3 (Homo sapiens), sequence (O75914 whole entry, looked up): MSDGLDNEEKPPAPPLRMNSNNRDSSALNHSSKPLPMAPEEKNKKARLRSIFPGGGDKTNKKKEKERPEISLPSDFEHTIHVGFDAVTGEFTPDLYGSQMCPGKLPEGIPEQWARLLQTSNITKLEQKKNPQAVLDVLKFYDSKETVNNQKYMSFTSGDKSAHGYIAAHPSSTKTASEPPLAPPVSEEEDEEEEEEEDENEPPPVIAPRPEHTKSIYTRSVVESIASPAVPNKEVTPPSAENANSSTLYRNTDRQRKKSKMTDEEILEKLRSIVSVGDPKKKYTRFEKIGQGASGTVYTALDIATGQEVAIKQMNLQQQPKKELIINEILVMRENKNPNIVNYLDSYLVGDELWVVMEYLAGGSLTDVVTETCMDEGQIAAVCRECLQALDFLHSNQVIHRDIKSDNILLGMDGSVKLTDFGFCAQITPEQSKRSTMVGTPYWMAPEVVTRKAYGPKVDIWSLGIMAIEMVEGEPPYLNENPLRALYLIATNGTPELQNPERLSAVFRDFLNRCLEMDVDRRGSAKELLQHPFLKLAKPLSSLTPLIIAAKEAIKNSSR
Eukaryotic elongation factor 2 kinase (Homo sapiens), sequence (O00418 whole entry): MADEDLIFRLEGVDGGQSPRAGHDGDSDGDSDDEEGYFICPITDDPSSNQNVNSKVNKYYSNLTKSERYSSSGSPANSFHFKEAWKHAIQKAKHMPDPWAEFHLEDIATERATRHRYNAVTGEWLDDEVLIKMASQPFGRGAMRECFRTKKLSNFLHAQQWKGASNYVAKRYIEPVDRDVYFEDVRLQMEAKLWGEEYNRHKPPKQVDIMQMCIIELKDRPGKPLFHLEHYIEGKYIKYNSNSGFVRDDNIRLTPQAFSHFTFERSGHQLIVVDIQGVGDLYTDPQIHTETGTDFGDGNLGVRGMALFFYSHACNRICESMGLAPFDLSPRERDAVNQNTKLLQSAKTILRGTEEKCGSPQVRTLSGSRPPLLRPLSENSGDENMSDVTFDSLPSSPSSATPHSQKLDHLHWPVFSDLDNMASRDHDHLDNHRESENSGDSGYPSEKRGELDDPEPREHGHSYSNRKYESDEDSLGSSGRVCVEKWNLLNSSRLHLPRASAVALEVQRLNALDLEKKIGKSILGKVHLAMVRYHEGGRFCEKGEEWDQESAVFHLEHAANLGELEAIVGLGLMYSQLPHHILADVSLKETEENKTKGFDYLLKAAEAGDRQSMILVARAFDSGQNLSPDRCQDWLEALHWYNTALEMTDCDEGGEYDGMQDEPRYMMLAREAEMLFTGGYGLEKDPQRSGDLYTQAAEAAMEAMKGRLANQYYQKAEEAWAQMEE
MAP kinase-activated protein kinase 3 (Homo sapiens), sequence (Q16644 whole entry, looked up): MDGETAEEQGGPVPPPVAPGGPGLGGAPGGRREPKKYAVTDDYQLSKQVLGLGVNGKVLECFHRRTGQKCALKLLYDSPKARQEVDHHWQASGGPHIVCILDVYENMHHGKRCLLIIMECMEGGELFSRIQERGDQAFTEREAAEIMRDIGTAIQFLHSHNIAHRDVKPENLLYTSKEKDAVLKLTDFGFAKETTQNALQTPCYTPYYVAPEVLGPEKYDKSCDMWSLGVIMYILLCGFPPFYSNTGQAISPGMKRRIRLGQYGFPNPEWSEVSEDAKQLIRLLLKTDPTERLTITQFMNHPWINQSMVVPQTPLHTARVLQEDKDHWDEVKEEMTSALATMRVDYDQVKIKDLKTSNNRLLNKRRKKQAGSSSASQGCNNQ
Death-associated protein kinase 2 (Homo sapiens), sequence (Q9UIK4 whole entry, looked up): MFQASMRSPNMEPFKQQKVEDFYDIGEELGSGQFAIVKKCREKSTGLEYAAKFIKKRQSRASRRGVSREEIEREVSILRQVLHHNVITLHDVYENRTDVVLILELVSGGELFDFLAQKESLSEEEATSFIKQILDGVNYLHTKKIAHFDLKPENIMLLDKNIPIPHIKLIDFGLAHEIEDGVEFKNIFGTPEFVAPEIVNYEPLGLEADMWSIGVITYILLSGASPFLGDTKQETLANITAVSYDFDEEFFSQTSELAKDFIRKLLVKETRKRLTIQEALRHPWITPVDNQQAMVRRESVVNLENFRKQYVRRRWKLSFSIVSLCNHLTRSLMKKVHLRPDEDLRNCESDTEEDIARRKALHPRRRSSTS

CCc1ccccc1C(=O)Nc1n[nH]c2c(C)c(F)c(C3C(C#N)=C(C)N(C)C(C)=C3C#N)cc12 [BAY-3827]
inactive: [1] 106% | [2] 96% | [3] 104% | [4] 141% | [5] 91% | [6] 105% | [7] 95% | [8] 100% | [9] 99%
